Several values for one entry are separate records, joined by “and”; a condition that tells them apart may be missing. Equal entries are not always repeated. Where two headings read alike, the source gives them in different places.
Target: T1, GBA2 (Homo sapiens, UniProt Q9HCG7)
T1 sequence (Q9HCG7 1-927): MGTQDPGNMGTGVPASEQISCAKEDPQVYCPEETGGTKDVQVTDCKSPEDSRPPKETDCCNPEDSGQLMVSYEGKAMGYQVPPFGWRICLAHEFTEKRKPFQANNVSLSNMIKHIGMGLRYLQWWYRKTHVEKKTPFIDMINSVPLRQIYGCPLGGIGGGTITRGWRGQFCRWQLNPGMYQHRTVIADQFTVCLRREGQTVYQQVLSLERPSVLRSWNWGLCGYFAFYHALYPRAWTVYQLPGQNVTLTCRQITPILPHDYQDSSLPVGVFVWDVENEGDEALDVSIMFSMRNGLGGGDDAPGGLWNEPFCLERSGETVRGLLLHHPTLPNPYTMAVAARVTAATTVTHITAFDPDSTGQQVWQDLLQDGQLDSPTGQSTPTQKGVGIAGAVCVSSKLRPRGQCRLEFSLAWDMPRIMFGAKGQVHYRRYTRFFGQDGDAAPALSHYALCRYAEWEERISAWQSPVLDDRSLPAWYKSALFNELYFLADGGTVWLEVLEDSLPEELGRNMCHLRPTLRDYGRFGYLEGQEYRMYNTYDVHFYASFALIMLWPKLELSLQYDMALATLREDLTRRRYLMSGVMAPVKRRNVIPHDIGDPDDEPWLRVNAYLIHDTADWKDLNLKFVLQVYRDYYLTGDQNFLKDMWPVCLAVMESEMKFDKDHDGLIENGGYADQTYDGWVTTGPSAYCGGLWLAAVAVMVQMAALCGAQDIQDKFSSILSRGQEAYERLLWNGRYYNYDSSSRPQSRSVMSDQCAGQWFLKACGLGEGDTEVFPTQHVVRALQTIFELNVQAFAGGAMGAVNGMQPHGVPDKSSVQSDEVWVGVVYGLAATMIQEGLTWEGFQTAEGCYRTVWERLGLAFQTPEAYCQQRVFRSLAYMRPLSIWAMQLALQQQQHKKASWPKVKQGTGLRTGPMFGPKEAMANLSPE
Test: 4MU fluorogenic substrate assay for apparent IC50, GBA2
Assay type: biochemical
Set-up: expressed in transfected cells; host or cells: HEK293T GBA1/GBA2 KO (CRISPR/Cas9), GBA2 overexpressed
Conditions: 4MU-β-D-Glc
Excerpt: To identify an ABP that selectively labels human GBA2 over GBA1 and GBA3, a library of cyclophellitol-based ABPs with varying configurations (ESI Fig. S1 ^†) was screened for their selectivity towards human retaining β-glucosidases. For this purpose, we initially assessed the inhibition properties of the compounds using recombinant human GBA1 (rhGBA1, imiglucerase), lysates of cells overexpressing GBA2 or GBA3 (both in combination with knockout of the other retaining β-glucosidases). In a preliminary screen, enzymes were pre-incubated for 30 min with the tested compounds, followed by the addition of the fluorogenic substrate, 4MU-β-D-Glc, and subsequent quantification of released fluorescent 4MU after 30 minutes. This screening brought our attention to a new set of β-D-Araf cyclitol aziridines as potential GBA2 inhibitors. […] On the other hand, the biotin-tagged β-D-Araf compound 6 is a poor inhibitor of all three glucosidases (apparent IC50 > 8 μM). Arabinofuranosyl cyclitol 12–20 with various configurations (α-L-Araf and β-L-Araf) were also evaluated (ESI Fig. S1 ^†).
Recombinant human GBA1 (rhGBA1, Imiglucerase) was kindly provided by Sanofi Genzyme (Cambridge, MA, USA). 4-Methylumbelliferyl-β-D-glucopyranoside substrates were purchase from Glycosynth (Warrington Cheshire, UK). Protein concentration was measured using the Pierce BCA assay kit (Thermo Fisher Scientific, Waltham, MA, USA). Harvested cells (cell pellets), cell lysates and tissue homogenates not used directly were stored at -80 °C.
HEK293T (CRL‐3216™) cells were purchased from ATCC (Manassas, VA, USA). HEK293T cells were cultured in DMEM medium (Sigma‐Aldrich), supplied with 10% (v/v) FCS, 0.1% (w/v) penicillin/streptomycin and 1% (v/v) Glutamax, under 37 °C and 5% or 7% CO2. […]
2.3 Generation of cells genetically modified for β-glucosidase expression For overexpression of the different β-glucosidases, "wildtype" HEK293T cells, HEK293T cells with GBA2 knockout (KO) or HEK293T cells with both GBA1 and GBA2 KO were used, following by the overexpression (OE) of targeted β-glucosidases using the constructs as described in references.1,2 Either GBA2 or GBA3 were overexpressed in GBA1/GBA2 KO HEK293T (generated by the CRISPR/Cas9 method2) to generate GBA1/2 KOs with GBA2 (or GBA3) for overexpression in HEK293T cells as indicated, or using "wildtype" HEK293T cells containing endogenous GBA1 and GBA2 to overexpress both GBA2 and GBA3, these were generated as described in our previous report.1,2 […]
Cells were cultured with the method described above to 80-90% confluency, and were isolated, washed with Dulbecco′s phosphate buffered saline (PBS) and subsequently collected using the following method.3 HEK293T and RPE-1 cells were easily detached from the culture plate by trypsin treatment after which some DMEM medium was added. The cells were collected by pipetting and DMEM medium was removed by centrifuging. The cells were washed with cold PBS three times, after which they were centrifuged to remove PBS and then stored at –80 °C for further use or lysed in potassium phosphate buffer (K2HPO4-KH2PO4, 25 mM, pH 6.5, supplemented with 0.1% (v/v) Triton X-100 and protease inhibitor cocktail (EDTA-free, Roche, Basel, Switzerland)) by sonication with a Polytron PT 1300D sonicator (Kinematica, Luzern, Switzerland). After sonication, lysed mixtures were centrifuged at 10,000 x g for 3 min at 4°C, and the supernatants where desired β-glucosidases exist were used for the experiment.
2.5 4MU fluorogenic substrate assay for apparent IC50 determination
4MU fluorogenic substrate assays (using recombination human rhGBA1 or lysates of HEK293T cells) were conducted in 96-well plates at 37 °C. Samples were diluted with McIlvaine buffer (150 mM citric acid-Na2HPO4) to a final volume of 25 μL, at the appropriate pH for each enzyme. Assays were performed by incubating the samples with 100 μL 4-methylumbelliferyl-β-D-glucopyranoside substrate diluted in McIlvaine buffer for a period of 30 min. […]

[1] = GBA1/GBA2 KO GBA2 OE HEK293T cell lysate, 30 min pre-incubation, pH 5.8, n = 3 for β-D-Araf, n = 1 for α-L-Araf and β-L-Araf, read-out: Apparent IC50 GBA2
[2] = Apparent IC50 GBA2, GBA1/GBA2 KO GBA2 OE HEK293T cell lysate, 30 min pre-incubation, pH 5.8, n = 3 for β-D-Araf, n = 1 for α-L-Araf and β-L-Araf

Compound	IC50 [1]	IC50 [2]	other results
[N-]=[N+]=NCCCCCCCCN1[C@@H]2[C@H](CO)[C@@H](O)[C@H](O)[C@@H]21 (stereo partly drawn) [Compound 2, β-D-arabinofuranosyl cyclitol aziridine-azidooctyl]	630 nM		
COc1ccc(C2=[N+]3C(=C(CCCCc4cn(CCCCCCCCN5[C@@H]6[C@H](CO)[C@@H](O)[C@H](O)[C@@H]65)nn4)c4ccc(-c5ccc(OC)cc5)n4[B-]3(F)F)C=C2)cc1 (some centres unmarked) [ABP 4]		120 to 160 nM and 162 nM	
CC1=CC(C)=[N+]2C1=C(CCCCc1cn(CCCCCCCCN3[C@@H]4[C@H](CO)[C@@H](O)[C@H](O)[C@@H]43)nn1)c1c(C)cc(C)n1[B-]2(F)F (some centres unmarked) [ABP 3]		120 to 160 nM and 124 nM	
OC[C@@H]1[C@@H](O)[C@H](O)[C@@H]2N[C@H]12 [Compound 1, β-D-Arabinofuranosyl cyclitol aziridine]	> 50000 nM		IC50 (30 min pre-incubation, read-out: Apparent IC50 GBA2): > 50000 nM
O=C(CCCC[C@@H]1SC[C@@H]2NC(=O)N[C@@H]21)NCc1cn(CCCCCCCCN2[C@@H]3[C@H](CO)[C@@H](O)[C@H](O)[C@@H]32)nn1 (some centres unmarked) [ABP 6]		8480 ± 763 nM	IC50 (Apparent IC50 GBA2, 30 min pre-incubation): > 8000 nM
CN1/C(=C/C=C/C=C/C2=[N+](CCCCCC(=O)NCc3cn(CCCCCCCCN4[C@@H]5[C@H](CO)[C@@H](O)[C@H](O)[C@@H]54)nn3)c3ccccc3C2(C)C)C(C)(C)c2ccccc21 (some centres unmarked) [ABP 5]		250 to 300 nM and 264 nM	
